Results from ChEMBL document CHEMBL4359894, “Novel class of 7-Oxabicyclo[2.2.1]heptene sulfonamides with long alkyl chains displaying improved estrogen receptor α degradation activity” (Eur J Med Chem, 2019).
Activity calls are given as the source filed them. The calls are words filed in the database; no cut-off is given here. Where a SMILES comes first, the peptide text is derived from it. The star is where a group is joined. Cbz = O=C(OCc1ccccc1)*

Key:
[1] = target: T1, Estrogen receptor (Homo sapiens) (UniProt P03372); experiment: Induction of ERalpha degradation in human MCF7 cells assessed as decrease in ERalpha protein expression at 10 uM incubated for 24 hrs by Western blot analysis; format: cell-based
T1 sequence (whole entry): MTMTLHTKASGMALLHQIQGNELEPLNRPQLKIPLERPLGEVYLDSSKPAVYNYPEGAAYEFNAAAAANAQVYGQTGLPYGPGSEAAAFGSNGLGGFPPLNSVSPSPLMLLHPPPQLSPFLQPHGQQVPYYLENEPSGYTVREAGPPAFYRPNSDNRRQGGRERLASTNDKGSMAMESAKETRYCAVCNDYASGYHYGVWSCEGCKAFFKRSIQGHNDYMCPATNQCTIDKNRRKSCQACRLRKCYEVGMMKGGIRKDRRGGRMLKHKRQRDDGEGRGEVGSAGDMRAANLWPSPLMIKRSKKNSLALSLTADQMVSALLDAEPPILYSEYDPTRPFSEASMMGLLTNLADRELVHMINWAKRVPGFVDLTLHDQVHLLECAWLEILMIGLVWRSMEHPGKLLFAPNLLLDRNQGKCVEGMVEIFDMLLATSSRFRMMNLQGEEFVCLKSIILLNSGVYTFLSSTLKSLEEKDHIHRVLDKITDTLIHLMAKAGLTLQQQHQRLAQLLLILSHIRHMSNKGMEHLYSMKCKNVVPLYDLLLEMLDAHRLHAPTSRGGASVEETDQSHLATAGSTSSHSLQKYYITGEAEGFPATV

[2] = target: T1, Estrogen receptor (Homo sapiens); experiment: Induction of ERalpha degradation in human MCF7 cells assessed as decrease in ERalpha protein expression at 0.5 uM incubated for 24 hrs by Western blot analysis; format: cell-based
[3] = tested on: MCF7; experiment: Induction of apoptosis in human MCF7 cells assessed as early apoptotic cells at 10 uM incubated for 24 hrs by Annexin V-FITC/propidium iodide staining-based flow cytometric analysis (reference value: 1.26%); format: functional
[4] = target: T1, Estrogen receptor (Homo sapiens); experiment: Induction of ERalpha degradation in human MCF7 cells assessed as decrease in ERalpha protein expression at 5 uM incubated for 24 hrs in presence of proteasome inhibitor MG132 by Western blot analysis; format: cell-based
[5] = tested on: MCF7; experiment: Antiproliferative activity against human MCF7 cell incubated for 72 hrs by MTT assay; format: functional, cell-based; details: MCF7, 72 h
[6] = tested on: MCF7; experiment: Induction of apoptosis in human MCF7 cells assessed as late apoptotic cells at 5 uM incubated for 24 hrs by Annexin V-FITC/propidium iodide staining-based flow cytometric analysis (reference value: 8.73%); format: functional
[7] = AUC (0 to infinity) in Sprague-Dawley rat at 3 mg/kg, iv administered via foot dorsal vein by LC-MS/MS analysis; format: ADME, organism-based; design: dose 3 mg/kg, route intravenous, time infinity; details: in vivo
[8] = Tmax in Sprague-Dawley rat at 3 mg/kg, iv administered via foot dorsal vein by LC-MS/MS analysis; format: ADME, organism-based; details: in vivo
[9] = target: T1, Estrogen receptor (Homo sapiens); experiment: Induction of ERalpha degradation in human MCF7 cells assessed as decrease in ERalpha protein expression at 1 uM incubated for 24 hrs by Western blot analysis relative to control; format: cell-based; design: scale not given: the % may be the effect or the level left
[10] = tested on: MCF-10A; experiment: Cytotoxicity against human MCF10A cell incubated for 72 hrs by MTT assay; format: cell-based
[11] = Half life in Sprague-Dawley rat at 3 mg/kg, iv administered via foot dorsal vein by LC-MS/MS analysis; format: ADME, organism-based; details: in vivo
[12] = tested on: MCF7; experiment: Induction of apoptosis in human MCF7 cells assessed as late apoptotic cells at 1 uM incubated for 24 hrs by Annexin V-FITC/propidium iodide staining-based flow cytometric analysis (reference value: 8.73%); format: functional
[13] = tested on: MCF7; experiment: Induction of apoptosis in human MCF7 cells assessed as necrotic cells at 1 uM incubated for 24 hrs by Annexin V-FITC/propidium iodide staining-based flow cytometric analysis (reference value: 4.65%); format: functional
[14] = tested on: MCF7; experiment: Induction of apoptosis in human MCF7 cells assessed as necrotic cells at 10 uM incubated for 24 hrs by Annexin V-FITC/propidium iodide staining-based flow cytometric analysis (reference value: 4.65%); format: functional
[15] = tested on: MCF7; experiment: Induction of apoptosis in human MCF7 cells assessed as live cells at 1 uM incubated for 24 hrs by Annexin V-FITC/propidium iodide staining-based flow cytometric analysis (reference value: 85.37%); format: functional
[16] = Volume of distribution at steady state in Sprague-Dawley rat at 3 mg/kg, iv administered via foot dorsal vein by LC-MS/MS analysis; format: ADME, organism-based; details: in vivo, read-out: Vdss
[17] = target: T1, Estrogen receptor (Homo sapiens); experiment: Induction of ERalpha degradation in human MCF7 cells assessed as decrease in ERalpha protein expression at 5 uM incubated for 24 hrs by Western blot analysis relative to control; format: cell-based
[18] = tested on: MCF7; experiment: Induction of apoptosis in human MCF7 cells assessed as late apoptotic cells at 10 uM incubated for 24 hrs by Annexin V-FITC/propidium iodide staining-based flow cytometric analysis (reference value: 8.73%); format: functional
[19] = Cmax in Sprague-Dawley rat at 3 mg/kg, iv administered via foot dorsal vein by LC-MS/MS analysis; format: ADME, organism-based; design: dose 3 mg/kg, route intravenous; details: in vivo
[20] = target: Estrogen receptor beta (Homo sapiens) (UniProt Q92731); experiment: Binding affinity to ERbeta (unknown origin) by competitive fluorometric receptor binding assay relative to estradiol
[21] = tested on: MCF7; experiment: Induction of apoptosis in human MCF7 cells assessed as early apoptotic cells at 1 uM incubated for 24 hrs by Annexin V-FITC/propidium iodide staining-based flow cytometric analysis (reference value: 1.26%); format: functional
[22] = tested on: MCF7; experiment: Induction of apoptosis in human MCF7 cells assessed as necrotic cells at 5 uM incubated for 24 hrs by Annexin V-FITC/propidium iodide staining-based flow cytometric analysis (reference value: 4.65%); format: functional
[23] = Plasma clearance in Sprague-Dawley rat at 3 mg/kg, iv administered via foot dorsal vein by LC-MS/MS analysis; format: ADME, organism-based
[24] = Therapeutic index, ratio of IC50 for cytotoxicity against human MCF10A cells to IC50 for antiproliferative activity against human MCF7 cells; format: toxicity, cell-based; details: read-out: Ratio IC50
[25] = tested on: MCF7; experiment: Induction of apoptosis in human MCF7 cells assessed as live cells at 10 uM incubated for 24 hrs by Annexin V-FITC/propidium iodide staining-based flow cytometric analysis (reference value: 85.37%); format: functional
[26] = tested on: MCF7; experiment: Induction of apoptosis in human MCF7 cells assessed as early apoptotic cells at 5 uM incubated for 24 hrs by Annexin V-FITC/propidium iodide staining-based flow cytometric analysis (reference value: 1.26%); format: functional
[27] = target: T1, Estrogen receptor (Homo sapiens); experiment: Binding affinity to ERalpha (unknown origin) by competitive fluorometric receptor binding assay relative to estradiol
[28] = tested on: MCF7; experiment: Induction of apoptosis in human MCF7 cells assessed as live cells at 5 uM incubated for 24 hrs by Annexin V-FITC/propidium iodide staining-based flow cytometric analysis (reference value: 85.37%); format: functional
[29] = target: T1, Estrogen receptor (Homo sapiens); experiment: Induction of ERalpha degradation in human MCF7 cells assessed as decrease in ERalpha protein expression at 0.1 to 10 uM incubated for 24 hrs by Western blot analysis; format: cell-based

Chain of Estrogen receptor beta (Homo sapiens) (Q92731 whole entry): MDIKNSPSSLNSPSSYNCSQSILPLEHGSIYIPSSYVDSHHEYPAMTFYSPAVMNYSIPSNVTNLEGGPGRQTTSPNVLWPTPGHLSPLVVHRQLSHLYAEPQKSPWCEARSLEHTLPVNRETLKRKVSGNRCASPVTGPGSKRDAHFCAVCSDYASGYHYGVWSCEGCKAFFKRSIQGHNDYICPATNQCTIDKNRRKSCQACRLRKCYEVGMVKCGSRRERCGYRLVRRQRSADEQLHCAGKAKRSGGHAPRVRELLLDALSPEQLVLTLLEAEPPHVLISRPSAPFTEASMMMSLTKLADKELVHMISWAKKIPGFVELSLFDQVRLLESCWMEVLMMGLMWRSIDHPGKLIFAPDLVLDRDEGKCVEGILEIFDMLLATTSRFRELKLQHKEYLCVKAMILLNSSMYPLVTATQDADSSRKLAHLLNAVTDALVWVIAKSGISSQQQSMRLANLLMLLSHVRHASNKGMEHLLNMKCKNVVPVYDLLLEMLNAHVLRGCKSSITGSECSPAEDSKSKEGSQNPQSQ

Which Activity [1] does the source give for `CC(C)C[C@@H](C=O)NC(=O)[C@H](CC(C)C)NC(=O)[C@H](CC(C)C)NC(=O)OCc1ccccc1` (Cbz-Leu-Leu-Leu-aldehyde) here?
The Activity was “inactive”.

For `CCCCCCOc1ccc(N(CC(F)(F)F)S(=O)(=O)[C@H]2C[C@H]3O[C@@H]2C(c2ccc(O)cc2)=C3c2ccc(O)cc2)cc1` (relative stereo), which Activity [2] is on record?
The Activity was “Active”.

And the Activity [3]?
The Activity was 65.96%.

What about the Activity [4] of the same compound?
The Activity was “inactive”.

What about the IC50 [5] of the same compound?
The IC50 was 0.77 µM.

What about the Activity [6] of the same compound?
Its Activity is 40.85%.

And the AUC(0-inf) [7]?
Its AUC(0-inf) is 529 ng·h/mL.

What about the Tmax [8] of the same compound?
Its Tmax is 4.8 min.

What about the Activity [9] of the same compound?
Its Activity is 100%.

What about the IC50 [10] of the same compound?
The IC50 was 39.3 µM.

What about the half-life [11] of the same compound?
Its half-life is 2.2 h.

And the Activity [12]?
Its Activity is 12.72%.

What about the Activity [13] of the same compound?
Its Activity is 1.34%.

What about the Activity [14] of the same compound?
The Activity was 1.88%.

What about the Activity [15] of the same compound?
Its Activity is 79.95%.

And the Vd [16]?
The Vd was 10.7 L/kg.

And the Activity [17]?
Its Activity is “Active”.

What about the Activity [18] of the same compound?
The Activity was 18.77%.

And the Cmax [19]?
Its Cmax is 964 ng/mL.

And the relative binding affinity (RBA) [20]?
Its relative binding affinity (RBA) is 0.86.

What about the Activity [21] of the same compound?
Its Activity is 5.99%.

What about the Activity [22] of the same compound?
The Activity was 9.24%.

And the clearance [23]?
The clearance was 105 mL/min/kg.

And the selectivity ratio [24]?
Its selectivity ratio is 51.

And the Activity [25]?
The Activity was 13.39%.

What about the Activity [26] of the same compound?
The Activity was 36.96%.

And the relative binding affinity (RBA) [27]?
The relative binding affinity (RBA) was 3.11.

What about the Activity [28] of the same compound?
Its Activity is 12.95%.

Which IC50 [5] does the source give for `CCCCCCOc1ccc(N(CC)S(=O)(=O)[C@H]2C[C@H]3O[C@@H]2C(c2ccc(O)cc2)=C3c2ccc(O)cc2)cc1` (relative stereo) here?
Its IC50 is 1.48 µM.

And the IC50 [10]?
The IC50 was 36.5 µM.

What about the Activity [17] of the same compound?
The Activity was “Active”.

What about the relative binding affinity (RBA) [20] of the same compound?
Its relative binding affinity (RBA) is 0.14.

And the selectivity ratio [24]?
The selectivity ratio was 24.6.

What about the relative binding affinity (RBA) [27] of the same compound?
The relative binding affinity (RBA) was 2.29.

Which IC50 [5] does the source give for `COc1ccc(N(CC(F)(F)F)S(=O)(=O)[C@H]2C[C@H]3O[C@@H]2C(c2ccc(O)cc2)=C3c2ccc(O)cc2)cc1` (relative stereo) here?
Its IC50 is 9.84 µM.

And the Activity [9]?
The Activity was “Active”.

And the IC50 [10]?
Its IC50 is 41.7 µM.

What about the relative binding affinity (RBA) [20] of the same compound?
Its relative binding affinity (RBA) is 0.07.

And the selectivity ratio [24]?
Its selectivity ratio is 4.2.

And the Activity [29]?
The Activity was “Active”.

And the relative binding affinity (RBA) [27]?
The relative binding affinity (RBA) was 0.74.
